Laboratory results: ChEMBL document CHEMBL3813696, “Identification of Compounds with Efficacy against Malaria Parasites from Common North American Plants” (J Nat Prod, 2016)

Legend:
[1] = Selectivity ratio of IC50 for human HeLa cells to IC50 for multidrug sensitive Plasmodium falciparum HB3; format: ADME, cell-based; details: for selectivity ratio: HeLa cells versus Plasmodium falciparum HB3, read-out: Ratio IC50; for Ratio IC50: hela
[2] = Resistance index, ratio of IC50 for multidrug resistant Plasmodium falciparum NHP1337 to IC50 for multidrug sensitive Plasmodium falciparum HB3; format: functional
Plasmodium falciparum [3] = assay: Antimalarial activity against multidrug resistant Plasmodium falciparum NHP1337 assessed as growth inhibition after 72 hrs by SYBR Green based fluorescence assay; format: functional, organism-based
[4] = Selectivity ratio of IC50 for human HeLa cells to IC50 for multidrug resistant Plasmodium falciparum NHP1337; format: ADME, cell-based; details: for selectivity ratio: HeLa cells versus Plasmodium falciparum NHP1337, read-out: Ratio IC50; for Ratio IC50: hela
HeLa = assay: Cytotoxicity against human HeLa cells assessed as growth inhibition by sulforhodamine B assay; format: cell-based
Plasmodium falciparum [5] = assay: Antimalarial activity against multidrug sensitive Plasmodium falciparum HB3 assessed as growth inhibition after 72 hrs by SYBR Green based fluorescence assay; format: functional, organism-based
[6] = Plasmodium falciparum, NHP1337, 72 h
[7] = Plasmodium falciparum, HB3, 72 h

| SMILES | selectivity ratio [1] | Ratio IC50 [2] | IC50 (Plasmodium falciparum [3]; [6]) | selectivity ratio [4] | IC50 (HeLa; Homo sapiens, HeLa) | IC50 (Plasmodium falciparum [5]; [7]) | Ratio IC50 [1] | IC50 (Plasmodium falciparum [3]) | Ratio IC50 [4] | IC50 (HeLa; hela) | IC50 (Plasmodium falciparum [5]) |
| --- | --- | --- | --- | --- | --- | --- | --- | --- | --- | --- | --- |
| CC(=O)O[C@@H]1[C@@H](OC(=O)/C=C\c2ccc(O)cc2)[C@H](Oc2c(-c3ccc(O)cc3)oc3cc(O)cc(O)c3c2=O)O[C@H](COC(=O)/C=C/c2ccc(O)cc2)[C@H]1OC(C)=O | < 3.3 | 5.6 | 5000 nM | < 0.6 | < 3000 nM | 900 nM |  |  |  |  |  |
| C[C@@H]1O[C@@H](Oc2c(-c3ccc(O)cc3)oc3cc(O)cc(O)c3c2=O)[C@H](OC(=O)/C=C/c2ccc(O)cc2)[C@H](OC(=O)/C=C/c2ccc(O)cc2)[C@H]1O | 34 | 12 | 7000 nM | 2.9 | 20600 nM | 600 nM |  |  |  |  |  |
| C=C(C)[C@@H]1CC[C@]2(CO)CC[C@]3(C)[C@H](CC[C@@H]4[C@@]5(C)CC[C@H](O)[C@@](C)(COC(=O)/C=C/c6ccc(O)c(OC)c6)[C@@H]5CC[C@]43C)[C@@H]12 (stereo in doubt; 3) [listing 1 of 2 here] |  | 0.5 |  |  |  |  |  |  |  |  |  |
| C=C(C)[C@@H]1CC[C@]2(CO)CC[C@]3(C)[C@H](CC[C@@H]4[C@@]5(C)CC[C@H](O)[C@@](C)(COC(=O)/C=C/c6ccc(O)c(OC)c6)[C@@H]5CC[C@]43C)[C@@H]12 (stereo in doubt) [listing 1 of 2 here] |  | 0.3 |  |  |  |  |  |  |  |  |  |
| C=C(C)[C@@H]1CC[C@]2(CO)CC[C@]3(C)[C@H](CC[C@@H]4[C@@]5(C)CC[C@H](OC(=O)/C=C/c6ccc(O)c(OC)c6)[C@@](C)(CO)[C@@H]5CC[C@]43C)[C@@H]12 | > 6.7 | 0.8 | 2300 nM | > 8.7 | > 20000 nM | 3000 nM |  |  |  |  |  |
| C=C(C)[C@@H]1CC[C@]2(CO)CC[C@]3(C)[C@H](CC[C@@H]4[C@@]5(C)CC[C@H](OC(=O)/C=C/c6ccc(O)cc6)[C@@](C)(CO)[C@@H]5CC[C@]43C)[C@@H]12 (stereo in doubt; 6) [listing 1 of 2 here] |  |  |  |  |  | 1900 nM | > 11 | 1400 nM | > 14 | > 20000 nM |  |
| C=C(C)[C@@H]1CC[C@]2(CO)CC[C@]3(C)[C@H](CC[C@@H]4[C@@]5(C)CC[C@H](O)[C@@](C)(COC(=O)/C=C/c6ccc(O)cc6)[C@@H]5CC[C@]43C)[C@@H]12 | 31 | 0.9 | 850 nM | 33 | 28000 nM | 900 nM |  |  |  |  |  |
| C=C(C)[C@@H]1CC[C@]2(CO)CC[C@]3(C)[C@H](CC[C@@H]4[C@@]5(C)CC[C@H](O)[C@@](C)(COC(=O)/C=C\c6ccc(O)cc6)[C@@H]5CC[C@]43C)[C@@H]12 | 8.8 | 1.9 | 1530 nM | 4.6 | 7000 nM | 800 nM |  |  |  |  |  |
| C=C(C)[C@@H]1CC[C@]2(CO)CC[C@]3(C)[C@H](CC[C@@H]4[C@@]5(C)CC[C@H](OC(=O)/C=C/c6ccc(O)cc6)[C@@](C)(CO)[C@@H]5CC[C@]43C)[C@@H]12 (stereo in doubt; 6) [listing 2 of 2 here] |  | 0.7 |  |  |  |  |  |  |  |  |  |
| C=C(C)[C@@H]1CC[C@]2(CO)CC[C@]3(C)[C@H](CC[C@@H]4[C@@]5(C)CC[C@H](O)[C@@](C)(COC(=O)/C=C/c6ccc(O)c(OC)c6)[C@@H]5CC[C@]43C)[C@@H]12 (stereo in doubt) [listing 2 of 2 here] |  |  |  |  |  | 1000 nM | 20 | 310 nM | 65 | 20000 nM |  |
| C[C@@H]1O[C@@H](Oc2c(-c3ccc(O)cc3)oc3cc(O)cc(O)c3c2=O)[C@H](OC(=O)/C=C\c2ccc(O)cc2)[C@H](OC(=O)/C=C/c2ccc(O)cc2)[C@H]1O | 19 | 8.2 | 4100 nM | 2.3 | 9300 nM | 500 nM |  |  |  |  |  |
| C[C@@H]1O[C@@H](Oc2c(-c3ccc(O)cc3)oc3cc(O)cc(O)c3c2=O)[C@H](OC(=O)/C=C\c2ccc(O)cc2)[C@H](OC(=O)/C=C\c2ccc(O)cc2)[C@H]1O | 8.9 | 3.9 | 7000 nM | 2.3 | 16000 nM | 1800 nM |  |  |  |  |  |
| O=c1cc(-c2ccc(O)c(-c3c(O)cc(O)c4c(=O)cc(-c5ccc(O)cc5)oc34)c2)oc2cc(O)cc(O)c12 [AMENTOFLAVONE] | 1.9 | 0.8 | 19000 nM | 2.4 | 46400 nM | 25000 nM |  |  |  |  |  |
| COc1cc(O)c(-c2c(C)cc(O)c3c2C(=O)c2cccc(O)c2C3=O)c(O)c1C(C)=O [KNIPHOLONE] | 6.6 | 1 | 5000 nM | 6.5 | 32300 nM |  |  |  |  |  |  |
| C=C(C)[C@@H]1CC[C@]2(CO)CC[C@]3(C)[C@H](CC[C@@H]4[C@@]5(C)CC[C@H](O)[C@@](C)(CO)[C@@H]5CC[C@]43C)[C@@H]12 | > 5.9 | 1.5 | 5200 nM | > 3.8 | > 20000 nM | 3400 nM |  |  |  |  |  |
| CC(=O)O[C@@H]1[C@@H](OC(=O)/C=C/c2ccc(O)cc2)[C@H](Oc2c(-c3ccc(O)cc3)oc3cc(O)cc(O)c3c2=O)O[C@H](COC(=O)/C=C\c2ccc(O)cc2)[C@H]1OC(C)=O | < 3.8 | 5 | 4000 nM | < 0.8 | < 3000 nM | 800 nM |  |  |  |  |  |
| CC(=O)O[C@@H]1[C@@H](OC(=O)/C=C/c2ccc(O)cc2)[C@H](Oc2c(-c3ccc(O)cc3)oc3cc(O)cc(O)c3c2=O)O[C@H](COC(=O)/C=C/c2ccc(O)cc2)[C@H]1OC(C)=O | < 5 | 3.5 | 2100 nM | < 1.4 | < 3000 nM | 600 nM |  |  |  |  |  |
| CC(=O)O[C@@H]1[C@@H](OC(=O)/C=C\c2ccc(O)cc2)[C@H](Oc2c(-c3ccc(O)cc3)oc3cc(O)cc(O)c3c2=O)O[C@H](COC(=O)/C=C\c2ccc(O)cc2)[C@H]1OC(C)=O | < 1.4 | 1.8 | 3800 nM | < 0.8 | < 3000 nM | 2100 nM |  |  |  |  |  |
| C[C@@H]1O[C@@H](Oc2c(-c3ccc(O)cc3)oc3cc(O)cc(O)c3c2=O)[C@H](OC(=O)/C=C/c2ccc(O)cc2)[C@H](OC(=O)/C=C\c2ccc(O)cc2)[C@H]1O | 6 | 2 | 4000 nM | 3 | 11900 nM | 2000 nM |  |  |  |  |  |
| C=C(C)[C@@H]1CC[C@]2(CO)CC[C@]3(C)[C@H](CC[C@@H]4[C@@]5(C)CC[C@H](O)[C@@](C)(COC(=O)/C=C/c6ccc(O)c(OC)c6)[C@@H]5CC[C@]43C)[C@@H]12 (stereo in doubt; 3) [listing 2 of 2 here] | > 40 |  | 270 nM | > 74 | > 20000 nM |  |  |  |  |  | 500 nM |
| C=C(C)[C@@H]1CC[C@]2(CO)CC[C@]3(C)[C@H](CC[C@@H]4[C@@]5(C)CC[C@H](OC(=O)/C=C/c6ccc(O)cc6)[C@@](C)(CO)[C@@H]5CC[C@]43C)[C@@H]12 (stereo in doubt) [listing 1 of 2 here] | 9.6 |  | 1600 nM | 14 | 22000 nM |  |  |  |  |  | 2300 nM |
| C=C(C)[C@@H]1CC[C@]2(CO)CC[C@]3(C)[C@H](CC[C@@H]4[C@@]5(C)CC[C@H](OC(=O)/C=C/c6ccc(O)cc6)[C@@](C)(CO)[C@@H]5CC[C@]43C)[C@@H]12 (stereo in doubt) [listing 2 of 2 here] |  | 0.7 |  |  |  |  |  |  |  |  |  |
